In patent US20190041401A1, “Methods of Treating Subjects having Severe and/or Persistent Asthma” (National Jewish Health, priority 2015, published 2019):

Experiments:
[1] = tested on: human lung epithelial cell line A549; assay: IL-33 mRNA induction in A549 cells (real-time PCR); type: cell-based; details: cytokine treatment for 72 hours, normalized to GAPDH
Protocol: (§1) FIGS. 18A-18J show the role of IL-33 in the persistence of asthma. FIG. 18A, A549 cells were cultured in medium alone or with IL-33 ([…]), IL-1b (2 ng/mL), IL-4 (10 ng/mL), IL-13 (20 ng/mL), IL-17 (10 ng/mL), TNF (2 ng/mL), IFN-γ (10 ng/mL), or IFN-γ plus TNF (same concentrations) for 72 hours, and then mRNA was analyzed for IL-33 normalized to glyceraldehyde-3-phosphate dehydrogenase (GAPDH). *P<0.05 and **P<0.01. There were 4 to 8 mice per group. FIGS. 18B-18E show the direct effect of IL-33 on airway hyperreactivity, lung ILCs, and autoinduction. […] IN, Intranasal. […] The change in RL with the 25-mg dose of methacholine is shown (n=5 per group). *P<0.05.
Immediately after flexiVent analysis, lung sections were collected in RIPA buffer (50 mmol/L Tris [pH 7.4], 150 mmol/L NaCl, 1 mmol/L EDTA, 1 mmol/L NaF, 1 mmol/L Na3VO4, and 0.1 mmol/L phenylmethylsulfonyl fluoride) containing protease and phosphatase inhibitors and homogenized. Lysed samples were subjected to 10% SDS-PAGE, transferred to a polyvinylidene difluoride membrane, and then immunoblotted with primary antibodies (IL-33 [R&D Systems], tubulin [H-235], and b-actin [Santa Cruz Biotechnology, Dallas, Tex]). After washing, the membranes were incubated with a horseradish peroxidase-conjugated secondary antibody. After additional washing, the membranes were developed with ECL reagent, as previously described (Gorska et al. 2007). A549 cell culture A549 cells were cultured in RPMI in 10% FBS (HyClone; Thermo Scientific, Waltham, Mass.) and 1% penicillin/streptomycin (Gibco, Carlsbad, Calif.) and maintained at 378C in a humidified 5% CO2 incubator. All cytokines were purchased from PeproTech (Rocky Hill, N.J.). In one experiment cells were treated with medium, IL-1b (2 ng/mL), IL-4 (10 ng/mL), IL-13 (20 ng/mL), IL-17 (10 ng/mL), IL-33 (20 ng/mL), TNF (2 ng/mL), IFN-g (10 ng/mL), and TNF (2 ng/mL) plus IFN-g (10 ng/mL) for 72 hours. Cellular RNA was analyzed for mRNA for IL-33 and IL-33R. In a second experiment cells were pretreated for 24 hours with medium, IL-1b (2 ng/mL), IL-4 (10 ng/mL), IL-13 (20 ng/mL), IL-17 (10 ng/mL), TNF (2 ng/mL), or IFN-g (10 ng/mL) before stimulation for 72 hours with IL-33 (20 ng/mL). Cellular RNAwas analyzed for mRNA for IL-33. In a third experiment cells were treated for 24 hours with DRA (5 μg/mL dust mite, 15 μg/mL ragweed, and 5 μg/mL Aspergillus species). Cellular RNA was analyzed for mRNA for IL-33. In a fourth experiment cells were treated for 24 hours with IL-13 (20 ng/mL) and ATP, and the supernatant was collected and analyzed for IL-33 levels by means of ELISA, according to the manufacturer's instructions (R&D systems). […]

A549 cells [2] = assay: IL-33 secretion by A549 cells (ELISA); type: cell-based, human; details: IL-13 20 ng/mL and ATP, overnight
Protocol: FIG. 27A, Effect of IL-13 on IL-33 secretion. A549 cells were treated overnight with medium or IL-13 (20 ng/mL) and ATP ([…]), and the released IL-33 was measured by using ELISA (n=6). *P=0.04. FIGS. 27B-27E, Direct effect of IL-33 on airway hyperreactivity and lung ILCs. C57Bl/6 mice were treated intranasally for 3 consecutive days with 400 ng per dose of IL-33. Outcome measures were evaluated 15 days after final exposure.
(§2) Immediately after flexiVent analysis, lung sections were collected in RIPA buffer (50 mmol/L Tris [pH 7.4], 150 mmol/L NaCl, 1 mmol/L EDTA, 1 mmol/L NaF, 1 mmol/L Na3VO4, and 0.1 mmol/L phenylmethylsulfonyl fluoride) containing protease and phosphatase inhibitors and homogenized. Lysed samples were subjected to 10% SDS-PAGE, transferred to a polyvinylidene difluoride membrane, and then immunoblotted with primary antibodies (IL-33 [R&D Systems], tubulin [H-235], and b-actin [Santa Cruz Biotechnology, Dallas, Tex]). […] Cellular RNA was analyzed for mRNA for IL-33 and IL-33R. […] Cellular RNAwas analyzed for mRNA for IL-33. […] Cellular RNA was analyzed for mRNA for IL-33. In a fourth experiment cells were treated for 24 hours with IL-13 (20 ng/mL) and ATP, and the supernatant was collected and analyzed for IL-33 levels by means of ELISA, according to the manufacturer's instructions (R&D systems).

A549 cells [3] = assay: Cytokine induction of IL-33R mRNA in A549 cells; type: cell-based, human; details: cytokine treatment for 72 hours
Protocol: as §1
as §2, with “homogenized.” for “homogenized. Lysed samples were subjected to 10% SDS-PAGE, transferred to a polyvinylidene difluoride membrane, and then immunoblotted with primary antibodies (IL-33 [R&D Systems], tubulin [H-235], and b-actin [Santa Cruz Biotechnology, Dallas, Tex]).”, “systems). […]” for “systems).”

A549 cells [4] = assay: IL-33 autoinduction in A549 cells after cytokine pretreatment; type: cell-based, human; details: pretreated 24 hours with cytokine, then 72 hours with IL-33 (20 ng/mL)
Protocol: as §1
as §2, with “homogenized.” for “homogenized. Lysed samples were subjected to 10% SDS-PAGE, transferred to a polyvinylidene difluoride membrane, and then immunoblotted with primary antibodies (IL-33 [R&D Systems], tubulin [H-235], and b-actin [Santa Cruz Biotechnology, Dallas, Tex]).”, “systems). […]” for “systems).”

In the case of “IL-13: cytokine purchased from PeproTech, 20 ng/mL on A549 cells”, the “induction of IL-33 mRNA” value [1] is reported as “most potent inducer of IL-33 mRNA”, the “secretion of IL-33” value (A549 cells [2]) is reported as “stimulated secretion of IL-33” and the “induction of IL-33R mRNA” value (A549 cells [3]) is reported as “strongly induced IL-33R”. The “IL-33 autoinduction after preincubation with cytokine” value (A549 cells [4]) was “synergistically enhanced IL-33 autoinduction”.
